We go through 16 molecules from PMC3448856 (Biochemistry, 2012).

pIC50, pKd, pKi: −log10 of the molar value. Values joined by “and” are separate entries in the source; they are usually repeats but may differ in a detail not shown here. Equal entries are not always repeated. Peptide text beside a SMILES is read from it. * marks the point of attachment. Tos = Cc1ccc(S(=O)(=O)*)cc1; Bn = c1ccc(C*)cc1

The term pIC50 denotes the IC50 on a negative log10 scale, so that one unit is a factor of ten. Broadly, the pKi is the negative decadic logarithm of the Ki, by convention in mol/L. By pKd is commonly meant the negative decadic logarithm of the Kd, by convention in mol/L.

Assay [1] addresses T1, APE-1 (Homo sapiens, UniProt P27695). The assay can be described thus: Gel-based assay for APE-1 inhibitors. In kind it is biochemical. The note with it: in gel excision assay; 20 nM APE-1, 100 nM duplex DNA with THF abasic site.
In assay [2] the target is APE-1 activity in T98G cell nuclear lysates (Homo sapiens, UniProt P27695). Put plainly: Molecular beacon assay with T98G cell nuclear lysates. In kind it is biochemical. The note with it: EC2nM APE-1 activity.
Chain of APE-1 activity in T98G cell nuclear lysates (P27695 whole entry, stated change not applied): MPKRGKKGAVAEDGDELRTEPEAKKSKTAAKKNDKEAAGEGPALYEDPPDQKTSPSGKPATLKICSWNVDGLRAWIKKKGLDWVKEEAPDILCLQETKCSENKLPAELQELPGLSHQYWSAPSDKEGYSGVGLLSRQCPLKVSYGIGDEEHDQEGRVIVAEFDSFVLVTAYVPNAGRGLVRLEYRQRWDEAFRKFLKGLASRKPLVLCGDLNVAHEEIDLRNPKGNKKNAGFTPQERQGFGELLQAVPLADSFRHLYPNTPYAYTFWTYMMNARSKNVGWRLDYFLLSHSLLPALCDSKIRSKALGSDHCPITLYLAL
Assay [3] relates to self-complementary sequence 5′-GAGAGCGCTCTC
The assay can be described thus: UV melting, self-complementary DNA. The note with it: TM without compound 36.4 °C. In kind it is binding.

The subject of assay [4] is hairpin with the THF abasic site. The assay can be described thus: UV melting, hairpin with THF abasic site. In kind it is binding.
Assay [5] concerns T98G cells. Put plainly: Short term. In kind it is cell-based, human. Particulars: for LD10 concentration: 72 h MTS assay.
For assay [6], the system named is T98G cells. The assay can be described thus: Long term. In kind it is cell-based, human.
The subject of assay [7] is T98G cells. Put plainly: Potentiation of MeLex cytotoxicity, short-term. In kind it is cell-based, human. The note with it: for LD50 of MeLex in the presence of LD10 concentration of inhibitor: 72 h MTS assay, MeLex by itself 267 μM. A general note: Tetrazolium assays rely on reduction of a dye to a coloured formazan, in cell work by metabolically active cells.
Assay [8] concerns T98G cells. The assay can be described thus: Potentiation of MeLex cytotoxicity, long term. In kind it is cell-based, human. The note with it: long term assay; for LD50 of MeLex in the presence of LD10 concentration of inhibitor: MeLex alone 9.9 μM.
For assay [9], the system named is T98G cells. The assay can be described thus: Quantification of abasic sites. Particulars: for level of ARS in combination with MeLex: 80 μM MeLex + 0.25 μM compound, through at least 12 h; for level of aldehyde reactive sites (ARS): 0.25 μM compound alone, up to 18 h, background 1/10^5 nucleotides.
Another assay relates to VERA kidney cell line. Particulars: read-out: IC50 for the toxicity; cited from earlier work.
Assay [10] deals with T1, APE-1. Put plainly: Molecular beacon assay for APE-1 endonuclease inhibition. Particulars: endonuclease activity; cells printed ND. In kind it is biochemical.
In assay [11] the target is T1, APE-1. The assay can be described thus: Fluorescence binding of 4 to APE-1 and displacement by E3330. The note with it: displacement of 6 μM 4 from 1 μM APE-1.
For assay [12], the system named is APE-1 endonuclease activity. The note with it: at 100 μM concentration; cited from earlier work.
The test system of the next assay is APE-1 redox. The note with it: read-out: IC50 for redox inhibition; cited from earlier work.
For assay [13], the system named is HEYC-2 ovarian tumor cells. Particulars: read-out: IC50 for cell growth; cited from earlier work.
Assay [14] deals with SKOV-3X ovarian tumor cells. The note with it: read-out: IC50 for cell growth; cited from earlier work.
In the next assay the target is unmodified hairpin DNA. The assay can be described thus: EtBr fluorescence titration with unmodified hairpin DNA. In kind it is binding. The note with it: unmodified hairpin DNA (data not shown).
The next assay concerns the target THF modified hairpin DNA. Put plainly: EtBr fluorescence titration with THF modified hairpin DNA. In kind it is binding. Particulars: THF modified hairpin DNA (data not shown).
The target in another assay is double-stranded DNA. Particulars: cited from earlier work.
The next assay concerns DNA with a bulge. The note with it: cited from earlier work.

T1 sequence (P27695 whole entry): as the sequence (P27695 whole entry, stated change not applied) above

On APE-1 [1], `C/C(=N\Nc1cc(C)nc2cc3c(cc12)OCO3)c1cn(C)n(-c2ccccc2)c1=O` [Compound 1] showed a negative-log IC50 (pIC50) of 5.36. This molecule also gave a negative-log Ki (pKi) in [2] of 6.35. Besides, in [3], the “TM of DNA in presence of compound” value was determined as 40.8 °C. In addition, the “increase in stability (TM) of hairpin” value in [4] is over 9 °C. Further, the LD10 concentration in the assay on T98G cells [5] worked out at 2.20 µM; in the assay on T98G cells [6] (long term assay), 0.17 µM. Besides, the figures for the “LD50 of MeLex in the presence of LD10 concentration of inhibitor” value (shortened to “LD50 of MeLex in the presence … of inhibitor”) with T98G cells [7] and in the assay with T98G cells [8] were 54 µM and 2.0 µM, respectively. For the same molecule, in the assay on T98G cells [9], the “level of ARS in combination with MeLex” value is 50 sites/10^5 nucleotides.
As for `COc1cccc(/C=N/Nc2cc(C)nc3cc4c(cc23)OCO4)c1` [Compound 2], the negative-log IC50 (pIC50) against APE-1 [1] is 5.00. In assay [2], this molecule gave a negative logarithm of the Ki (pKi) of 6.62.
For `Cc1cc(N/N=C/c2ccc3c(c2)OCO3)c2cc3c(cc2n1)OCO3` [Compound 3], the pIC50 against APE-1 [1] was 5.54; in the assay on VERA kidney cell line, 6.20.
Molecule `CCn1c2ccccc2c2cc(/C=N/Nc3cc(C)nc4cc5c(cc34)OCO5)ccc21` [Compound 4] showed a pIC50 on APE-1 [1] of 5.39. The molecule further showed a pKi in assay [2] of 6.68. In addition, in assay [3], the “TM of DNA in presence of compound” value was 37.3 °C. The “increase in stability (TM) of hairpin” value in [4] is reported as “not appreciably”. The LD50 in the assay on T98G cells [5] (3-day MTS assay) was found to be 0.96 µM; in the assay on T98G cells [6] (long term (10-day) assay, called clonogenic), 0.19 µM. In addition, the values for the LD10 concentration in the assay on T98G cells [5] and in the assay with T98G cells [6] (long term assay) were 0.25 µM and 0.08 µM, respectively. The results for the “LD50 of MeLex in the presence … of inhibitor” value with T98G cells [7] and in the assay on T98G cells [8] were 49 µM and 1.6 µM, respectively. In addition, in the assay with T98G cells [7] (short term assay, LD10 concentration of inhibitor), the “potentiation of MeLex toxicity (fold more sensitive)” value was “approximately 5 fold”. The “potentiation of MeLex toxicity” value with T98G cells [8] (LD10 concentration of inhibitor) is reported as “approximately 5 fold”. Moreover, in the assay with T98G cells [9], the “level of aldehyde reactive sites (ARS)” value is “approximately 17 ARS/10^5 nucleotides”. Besides, the “level of ARS in combination with MeLex” value in the assay on T98G cells [9] amounted to 63 sites/10^5 nucleotides.
Regarding `Cc1cc(N/N=C/c2c(C)n(C)n(-c3ccccc3)c2=O)c2cc3c(cc2n1)OCO3` [Compound 5], the negative logarithm of the IC50 (pIC50) at APE-1 [1] is 4.46. This molecule also had a pKi in [2] of 5.85. Besides, the values for the LD10 concentration in the assay on T98G cells [5] and in the assay on T98G cells [6] (long term assay) were 6.50 µM and 0.90 µM, respectively. Also, the “fold less toxic than 4” value in the assay on T98G cells [5] (assay (short or long term) not stated) is reported as about 20 fold. The results for the “LD50 of MeLex in the presence … of inhibitor” value with T98G cells [7] and in the assay on T98G cells [8] were 80 µM and 3.6 µM, respectively. For the same molecule, the “increase in ARS above background” value with T98G cells [9] (0.25 μM compound) is “approximately 4 fold”.
For the molecule `COc1ccc2c(C)cc(N/N=C(\C)c3cn(C)n(-c4ccccc4)c3=O)nc2c1` [Compound 8], the pKi on APE-1 [10] was under 4.00. Moreover, the pIC50 at APE-1 [1] is under 4.00. Besides, the “level of aldehyde reactive sites (ARS)” value with T98G cells [9] is reported as “same as background”.
Molecule `O=C(NNc1ccnc2cc(Cl)ccc12)/C(=C/c1ccccc1Cl)NC(=O)c1ccccc1` [Compound 15] showed a pKi at APE-1 [10] of under 4.00.
As for `Nc1ncnc2c1ncn2C1OC(C(=O)NCC(=O)O)C(O)C1O` (stereo not drawn) [Compound 16], the pKi on APE-1 [10] was under 4.00.
Same read-out and setting: to `CC(N)C(=O)NC1C(CO)OC(n2cnc3c(N)ncnc32)C1O` (stereo not drawn) [Compound 17] belongs under 4.00; to `CNC(=O)Oc1cc([N+](C)(C)C)ccc1C` [Compound 21], under 4.00.
With `CC(NC(=O)/C(=C\c1ccccc1)NC(=O)c1ccccc1)c1ccccc1` (stereo not drawn) [Compound 22], at APE-1 [10], the pKi is under 4.00.
As to `Cc1ccc(S(=O)(=O)NC(CSCc2ccccc2)C(=O)NC(Cc2ccc(O)cc2)C(=O)O)cc1` (stereo not drawn) [Compound 25] (Tos-Cys(Bn)-Tyr-OH; configuration not given here), the pKi at APE-1 [10] is under 4.00.
As for `CCOC(=O)CC/C(=C\NC(=O)c1ccccc1)NC(=O)c1ccccc1` [Compound 26], the negative logarithm of the Ki (pKi) on APE-1 [10] was under 4.00.
On to `CCCCCCCCC/C(=C\C1=C(C)C(=O)C(OC)=C(OC)C1=O)C(=O)O` [Compound E3330, (2E)-2-[(4,5-dimethoxy-2-methyl-3,6-dioxo-1,4-cyclohexadien-1-yl)methylene]undecanoic acid], for which the “E3330 concentration for approximately 50% decrease in the fluorescence of 4” value at APE-1 [11] is “approximately 12 μM”. Also, the “LD50 of MeLex in the presence … of inhibitor” value in the assay on T98G cells [7] is 128 µM; in the assay on T98G cells [8] it was “little or no contribution”. Besides, in [12], the “inhibition of APE-1 endonuclease activity” value is given as 3 fold. Moreover, the pIC50 is 5.00 in the assay with APE-1 redox, about 4.46 in assay [13] and about 4.46 in assay [14]. Moreover, the “level of aldehyde reactive sites (ARS)” value with T98G cells [9] is listed as “returned to control levels by 18 h”. Further, the “level of ARS in combination with MeLex” value in the assay on T98G cells [9] is given as “dropped off”.
Take `CC[n+]1c(-c2ccccc2)c2cc(N)ccc2c2ccc(N)cc21` [EtBr, ethidium bromide]: the pKd at unmodified hairpin DNA was 5.80; at THF modified hairpin DNA it was 5.74; on double-stranded DNA, about 6.00. For the same molecule, in the assay with DNA with a bulge, the “stronger binding to DNA with a bulge than to double-stranded DNA” value is given as about 10 fold. Besides, in the assay on T98G cells [9], the “level of aldehyde reactive sites (ARS)” value is “no affect”. Also, the “level of ARS in combination with MeLex” value in the assay with T98G cells [9] is reported as “dropped off”.
Take “methyl 3-(1-methyl-5-(1-methyl-5-(propylcarbamoyl)-1H-pyrrol-3-ylcarbamoyl)-1H-pyrrol-3-ylamino)-3-oxopropane-1-sulfonate [MeLex, reference compound]”: the LD50 in the assay on T98G cells [5] (short term (72 h) MTS assay, compound alone) was 250 µM and 267 µM; in the assay with T98G cells [6] (long term assay, compound alone), 12 µM and 9.9 µM. For the same molecule, in the assay with T98G cells [9] (80 μM MeLex, through the first 4 h), the “induction of ARS” value is 36 /10^5 nucleotides.
